The text below walks through data of ChEMBL document CHEMBL4831516, “Development of Membrane-Active Honokiol/Magnolol Amphiphiles as Potent Antibacterial Agents against Methicillin-Resistant Staphylococcus aureus (MRSA)” (J Med Chem, 2021).

For one series, the system named is Staphylococcus aureus. Briefly: Antibacterial activity against methicillin-resistant Staphylococcus aureus clinical isolate M-11 assessed as inhibition of visible growth incubated for 16 to 18 hrs by CLSI method. As to conditions: time 16-18 hrs, read-out: MIC100. Format: functional.
For `C=CCc1ccc(OCC[N+](C)(C)CC(=O)N(CCCC)CCCC)c(-c2ccc(OCC[N+](C)(C)CC(=O)N(CCCC)CCCC)c(CC=C)c2)c1.[Br-].[Br-]`, the MIC was 4 µg/mL.

In another series the test system is Staphylococcus aureus. The series is described as follows: Antibacterial activity against methicillin-resistant Staphylococcus aureus clinical isolate M-20 assessed as inhibition of visible growth incubated for 16 to 18 hrs by CLSI method. In kind it is functional. As to conditions: time 16-18 hrs, read-out: MIC100.
Take `C=CCc1ccc(OCC[N+](C)(C)CC(=O)N(CCCC)CCCC)c(-c2ccc(OCC[N+](C)(C)CC(=O)N(CCCC)CCCC)c(CC=C)c2)c1.[Br-].[Br-]`: the MIC worked out at 8 µg/mL.

Another series concerns Staphylococcus aureus. Briefly: Antibacterial activity against methicillin-resistant Staphylococcus aureus clinical isolate M-14 assessed as inhibition of visible growth incubated for 16 to 18 hrs by CLSI method. In kind it is functional. As to conditions: time 16-18 hrs, read-out: MIC100.
`C=CCc1ccc(OCC[N+](C)(C)CC(=O)N(CCCC)CCCC)c(-c2ccc(OCC[N+](C)(C)CC(=O)N(CCCC)CCCC)c(CC=C)c2)c1.[Br-].[Br-]`: the MIC turned out to be 4 µg/mL.

Tested on in a further series: not listed separately
Briefly: Hemolytic activity in sheep RBC assessed as hemolysis incubated for 1 hr. In kind it is ADME, cell-based, Ovis aries, Erythrocyte. As to conditions: sheep red blood cells (erythrocytes).
Consider `C=CCc1ccc(OCC[N+](C)(C)CC(=O)N(CCCC)CCCC)c(-c2ccc(OCC[N+](C)(C)CC(=O)N(CCCC)CCCC)c(CC=C)c2)c1.[Br-].[Br-]`, for which the HC50 at 1 h is greater than 1280 µg/mL.

A further series relates to Salmonella enterica. The series is described as follows: Antibacterial activity against Salmonella enterica 8389 assessed as inhibition of visible growth incubated for 16 to 18 hrs by CLSI method. Format: functional. The note with it: time 16-18 hrs, read-out: MIC100.
Turning to `C=CCc1ccc(OCC[N+](C)(C)CC(=O)N(CCCC)CCCC)c(-c2ccc(OCC[N+](C)(C)CC(=O)N(CCCC)CCCC)c(CC=C)c2)c1.[Br-].[Br-]`, the MIC turned out to be 32 µg/mL.

In the next series the test system is Stenotrophomonas maltophilia. The series is described as follows: Antibacterial activity against Stenotrophomonas maltophilia assessed as inhibition of visible growth incubated for 16 to 18 hrs by CLSI method. As to conditions: time 16-18 hrs, read-out: MIC100. Format: functional.
As for `C=CCc1ccc(OCC[N+](C)(C)CC(=O)N(CCCC)CCCC)c(-c2ccc(OCC[N+](C)(C)CC(=O)N(CCCC)CCCC)c(CC=C)c2)c1.[Br-].[Br-]`, the MIC stood at 32 µg/mL.

The test system of another series is Staphylococcus aureus. The series is described as follows: Antibacterial activity against methicillin-resistant Staphylococcus aureus clinical isolate M-15 assessed as inhibition of visible growth incubated for 16 to 18 hrs by CLSI method. Format: functional. As to conditions: time 16-18 hrs, read-out: MIC100.
On to `C=CCc1ccc(OCC[N+](C)(C)CC(=O)N(CCCC)CCCC)c(-c2ccc(OCC[N+](C)(C)CC(=O)N(CCCC)CCCC)c(CC=C)c2)c1.[Br-].[Br-]`, for which the MIC stood at 2 µg/mL.

Tested on in a further series: not listed separately
The series is described as follows: Selectivity index, HC50 for hemolytic activity in sheep RBC to MIC for antibacterial activity against Staphylococcus aureus ATCC29213. As to conditions: sheep red blood cells (erythrocytes), read-out: Selectivity Index. In kind it is toxicity.
Take `C=CCc1ccc(OCC[N+](C)(C)CC(=O)N(CCCC)CCCC)c(-c2ccc(OCC[N+](C)(C)CC(=O)N(CCCC)CCCC)c(CC=C)c2)c1.[Br-].[Br-]`: the selectivity ratio is greater than 320.

For a further series, the system named is Staphylococcus aureus. The series is described as follows: Antibacterial activity against Staphylococcus aureus ATCC29213 assessed as inhibition of visible growth incubated for 16 to 18 hrs by CLSI method. Format: functional. As to conditions: time 16-18 hrs, read-out: MIC100.
Consider `C=CCc1ccc(OCC[N+](C)(C)CC(=O)N(CCCC)CCCC)c(-c2ccc(OCC[N+](C)(C)CC(=O)N(CCCC)CCCC)c(CC=C)c2)c1.[Br-].[Br-]`, for which the MIC was 4 µg/mL.

The next series concerns Micrococcus luteus. Briefly: Antibacterial activity against Micrococcus luteus assessed as inhibition of visible growth incubated for 16 to 18 hrs by CLSI method. Format: functional. As to conditions: time 16-18 hrs, read-out: MIC100.
Turning to `C=CCc1ccc(OCC[N+](C)(C)CC(=O)N(CCCC)CCCC)c(-c2ccc(OCC[N+](C)(C)CC(=O)N(CCCC)CCCC)c(CC=C)c2)c1.[Br-].[Br-]`, the MIC was 4 µg/mL.

The next series relates to Staphylococcus aureus. The series is described as follows: Antibacterial activity against methicillin-resistant Staphylococcus aureus clinical isolate M-16 assessed as inhibition of visible growth incubated for 16 to 18 hrs by CLSI method. In kind it is functional. The note with it: time 16-18 hrs, read-out: MIC100.
On to `C=CCc1ccc(OCC[N+](C)(C)CC(=O)N(CCCC)CCCC)c(-c2ccc(OCC[N+](C)(C)CC(=O)N(CCCC)CCCC)c(CC=C)c2)c1.[Br-].[Br-]`, for which the MIC came out at 2 µg/mL.

The subject of another series is Staphylococcus aureus. Briefly: Antibacterial activity against methicillin-resistant Staphylococcus aureus clinical isolate M-18 assessed as inhibition of visible growth incubated for 16 to 18 hrs by CLSI method. In kind it is functional. As to conditions: time 16-18 hrs, read-out: MIC100.
For the compound `C=CCc1ccc(OCC[N+](C)(C)CC(=O)N(CCCC)CCCC)c(-c2ccc(OCC[N+](C)(C)CC(=O)N(CCCC)CCCC)c(CC=C)c2)c1.[Br-].[Br-]`, the MIC is 8 µg/mL.

Another series concerns Bacillus subtilis. Briefly: Antibacterial activity against Bacillus subtilis assessed as inhibition of visible growth incubated for 16 to 18 hrs by CLSI method. Format: functional. The note with it: time 16-18 hrs, read-out: MIC100.
With `C=CCc1ccc(OCC[N+](C)(C)CC(=O)N(CCCC)CCCC)c(-c2ccc(OCC[N+](C)(C)CC(=O)N(CCCC)CCCC)c(CC=C)c2)c1.[Br-].[Br-]`, the MIC amounted to 4 µg/mL.

For another series, the system named is Staphylococcus aureus. The series is described as follows: Antibacterial activity against methicillin-resistant Staphylococcus aureus clinical isolate M-13 assessed as inhibition of visible growth incubated for 16 to 18 hrs by CLSI method. Format: functional. The note with it: time 16-18 hrs, read-out: MIC100.
`C=CCc1ccc(OCC[N+](C)(C)CC(=O)N(CCCC)CCCC)c(-c2ccc(OCC[N+](C)(C)CC(=O)N(CCCC)CCCC)c(CC=C)c2)c1.[Br-].[Br-]`: the MIC is 4 µg/mL.

In another series the test system is Enterococcus faecalis. The series is described as follows: Antibacterial activity against Enterococcus faecalis ATCC29212 assessed as inhibition of visible growth incubated for 16 to 18 hrs by CLSI method. In kind it is functional. The note with it: time 16-18 hrs, read-out: MIC100.
As for `C=CCc1ccc(OCC[N+](C)(C)CC(=O)N(CCCC)CCCC)c(-c2ccc(OCC[N+](C)(C)CC(=O)N(CCCC)CCCC)c(CC=C)c2)c1.[Br-].[Br-]`, the MIC worked out at 2 µg/mL.

The next series concerns Staphylococcus aureus. Briefly: Antibacterial activity against methicillin-resistant Staphylococcus aureus clinical isolate M-19 assessed as inhibition of visible growth incubated for 16 to 18 hrs by CLSI method. Format: functional. As to conditions: time 16-18 hrs, read-out: MIC100.
On to `C=CCc1ccc(OCC[N+](C)(C)CC(=O)N(CCCC)CCCC)c(-c2ccc(OCC[N+](C)(C)CC(=O)N(CCCC)CCCC)c(CC=C)c2)c1.[Br-].[Br-]`, for which the MIC came to 8 µg/mL.

For a further series, the system named is Staphylococcus aureus. The series is described as follows: Antibacterial activity against methicillin-resistant Staphylococcus aureus clinical isolate M-17 assessed as inhibition of visible growth incubated for 16 to 18 hrs by CLSI method. Format: functional. The note with it: time 16-18 hrs, read-out: MIC100.
As to `C=CCc1ccc(OCC[N+](C)(C)CC(=O)N(CCCC)CCCC)c(-c2ccc(OCC[N+](C)(C)CC(=O)N(CCCC)CCCC)c(CC=C)c2)c1.[Br-].[Br-]`, the MIC came out at 2 µg/mL.

A further series deals with Escherichia coli. The series is described as follows: Antibacterial activity against Escherichia coli ATCC25922 assessed as inhibition of visible growth incubated for 16 to 18 hrs by CLSI method. Format: functional. The note with it: time 16-18 hrs, read-out: MIC100.
Turning to `C=CCc1ccc(OCC[N+](C)(C)CC(=O)N(CCCC)CCCC)c(-c2ccc(OCC[N+](C)(C)CC(=O)N(CCCC)CCCC)c(CC=C)c2)c1.[Br-].[Br-]`, the MIC amounted to 16 µg/mL.

A further series deals with Staphylococcus aureus. The series is described as follows: Antibacterial activity against methicillin-resistant Staphylococcus aureus clinical isolate M-12 assessed as inhibition of visible growth incubated for 16 to 18 hrs by CLSI method. In kind it is functional. As to conditions: time 16-18 hrs, read-out: MIC100.
Take `C=CCc1ccc(OCC[N+](C)(C)CC(=O)N(CCCC)CCCC)c(-c2ccc(OCC[N+](C)(C)CC(=O)N(CCCC)CCCC)c(CC=C)c2)c1.[Br-].[Br-]`: the MIC came to 4 µg/mL.

Another series concerns Salmonella enterica. The series is described as follows: Antibacterial activity against Salmonella enterica 349812 assessed as inhibition of visible growth incubated for 16 to 18 hrs by CLSI method. The note with it: time 16-18 hrs, read-out: MIC100. In kind it is functional.
With `C=CCc1ccc(OCC[N+](C)(C)CC(=O)N(CCCC)CCCC)c(-c2ccc(OCC[N+](C)(C)CC(=O)N(CCCC)CCCC)c(CC=C)c2)c1.[Br-].[Br-]`, the MIC amounted to 32 µg/mL.
